Molecules are shown by their SMILES. Bounds are passed on as bounds.

One assay concerns the target endogenous CGRP receptor (Homo sapiens, UniProt O60894+Q16602). The assay can be described thus: CGRP functional antagonism using SK-N-MC-BLA (4C10), β-lactamase transcriptional reporter assay. As to conditions: SK-N-MC (4C10) cells, inhibition of β-lactamase expression in the presence of 200 pM CGRP. The assay is classed as cell-based. On the technique in general: In a reporter assay the amount or activity of a reporter protein is the signal.

For assay [1], the target named is T1, CGRP receptor (SK-N-MC membrane) (Homo sapiens, UniProt O60894+Q16602).
T1 construct: Purified SK-N-MC membrane was purchased from Perkin Elmer; purchased Perkin Elmer; host or cells: SK-N-MC membrane
T1 sequence (Q16602 23-461): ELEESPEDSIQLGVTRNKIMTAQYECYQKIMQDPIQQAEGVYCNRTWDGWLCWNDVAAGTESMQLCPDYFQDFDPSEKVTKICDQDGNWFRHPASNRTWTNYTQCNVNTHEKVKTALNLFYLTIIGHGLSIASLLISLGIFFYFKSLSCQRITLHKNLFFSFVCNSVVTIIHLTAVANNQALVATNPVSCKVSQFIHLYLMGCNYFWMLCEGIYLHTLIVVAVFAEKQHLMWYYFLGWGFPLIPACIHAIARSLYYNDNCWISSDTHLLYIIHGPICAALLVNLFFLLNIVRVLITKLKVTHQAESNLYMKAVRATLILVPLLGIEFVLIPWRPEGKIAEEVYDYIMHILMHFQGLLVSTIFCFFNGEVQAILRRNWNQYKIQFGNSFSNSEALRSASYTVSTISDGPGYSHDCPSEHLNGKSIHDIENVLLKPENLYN
T1 sequence (O60894 27-148): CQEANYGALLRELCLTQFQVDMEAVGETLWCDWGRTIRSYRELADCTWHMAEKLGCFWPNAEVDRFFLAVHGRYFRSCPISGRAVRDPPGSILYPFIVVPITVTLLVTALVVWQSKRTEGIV
Description: I125-CGRP binding displacement assay on purified SK-N-MC membrane. On the procedure:
Purified SK-N-MC membrane was purchased from Perkin Elmer. The membrane was thawed quickly and placed on ice. The compounds were diluted with CGRP binding solution (25 mM Tris-HCl, pH7.4, 5 mM MgCl2, 0.1% BSA and 0.05% Tween). The membrane was diluted 1:20 with the binding solution and homogenized with Tissue Matster-50 Homogenizer (Omni International) for 30 sec. The homogenized membrane was added to compounds in the binding solution. […] After 2 hour incubation at room temperature, the reaction was stopped by rapid filtration through 0.5% PEI treated GF/C filter plate (Perkin Elmer) and the filter plate was washed with ice-cold washing solution (50 mM Tris HCl, pH7.4, 5 mM MgCl2 and 0.1% BSA) using cell harvestor (Tomtec). The radioactivity of the filter plates were read on Topcount (Packard). The nonspecific binding was determined in the control reaction where 1 uM unlabelled CGRP was preincubated with the membrane prior to I125-CGRP addition. The total binding was determined in the control reaction of the membrane and I125-CGRP in the absence of compound. The percent displacement of I125-CGRP with compounds was calculated using nonspecific and total binding controls. The curve fitting was carried out using MOD3.

Chain of endogenous CGRP receptor (Q16602 23-461): as the sequence (Q16602 23-461) above
Chain of endogenous CGRP receptor (O60894 27-148): as the sequence (O60894 27-148) above

A word on the IC50: it is the point on the concentration scale where inhibition reaches its midpoint. By Ki is commonly meant a measure of affinity in units of concentration, obtained from inhibition or displacement. A lower Ki goes with higher affinity. Consider `COCCN1C(=O)[C@H](CC(=O)N2CCC(N3CCc4ccccc4NC3=O)CC2)SC1c1cccc(F)c1N1CCN(C(C)(C)C)CC1` (some centres unmarked) [Compound 534], for which the IC50 on endogenous CGRP receptor is < 1000 nM. Further, the Ki in assay [1] was < 1000 nM.
On to `CN1CCN(c2cccc(F)c2C2SC(CC(=O)N3CCC(n4c(=O)[nH]c5ccccc54)CC3)C(=O)N2CCC(C)(C)C)CC1` (centres unmarked) [Compound 348], for which the IC50 on endogenous CGRP receptor was 1000 to 5000 nM. In addition, in assay [1], the Ki was > 5000 nM.
The corresponding values for `CC(C)(C)CCN1C(=O)C(CC(=O)N2CCC(N3CCc4ccccc4NC3=O)CC2)SC1c1ccccc1` (centres unmarked) [Compound 8] are < 1000 nM and < 1000 nM.
The corresponding values for `CC(C)N1CCN(c2c(F)cccc2[C@H]2S[C@@](C)(CC(=O)N3CCC(n4c(=O)[nH]c5ncccc54)CC3)C(=O)N2CCC(C)(C)C)CC1` [Compound 446] are < 1000 nM and < 1000 nM.
The corresponding values for `CC(C)(C)CCN1C(=O)[C@H](CC(=O)N2CCC(n3c(=O)[nH]c4ncccc43)CC2)SC1c1ccccc1N1CCNCC1=O` (some centres unmarked) [Compound 527] are < 1000 nM and < 1000 nM.
For the compound `CC(C)(C)CCN1C(=O)[C@H](CC(=O)N2CCC(n3c(=O)[nH]c4ncccc43)CC2)S[C@H]1c1cccc(F)c1N1CCC(O)C1` (some centres unmarked) [Compound 462], on endogenous CGRP receptor, the IC50 is < 1000 nM. Also, the Ki in assay [1] was < 1000 nM.
Take `CC(C)(C)N1CCN(c2c(F)cccc2C2S[C@@H](CC(=O)N3CCC(n4c(=O)[nH]c5ncccc54)CC3)C(=O)N2CC2CCOCC2)CC1` (some centres unmarked) [Compound 525]: the IC50 on endogenous CGRP receptor is < 1000 nM. For the same compound, the Ki in assay [1] was < 1000 nM.
On to `CC(C)(C)CCN1C(=O)C(CC(=O)N2CCC(N3Cc4ccccc4NC3=O)CC2)SC1c1ccccc1N1CCOCC1` (centres unmarked) [Compound 160], for which the IC50 at endogenous CGRP receptor is < 1000 nM. Moreover, in assay [1], the Ki was < 1000 nM.
In the case of `CC(C)(C)N1CCN(c2c(F)cccc2C2S[C@@H](CC(=O)N3CCC(N4CCc5ccccc5NC4=O)CC3)C(=O)N2Cc2ccccc2)CC1` (some centres unmarked) [Compound 539], the IC50 at endogenous CGRP receptor was < 1000 nM. The Ki in assay [1] was < 1000 nM.
`CCN1CCN(c2c(F)cccc2C2SC(CC(=O)N3CCC(n4c(=O)[nH]c5ncccc54)CC3)C(=O)N2CCC(C)(C)C)CC1` (centres unmarked) [Compound 349]: on endogenous CGRP receptor, the IC50 is < 1000 nM. The Ki in assay [1] is < 1000 nM.
Turning to `CC(C)CCN1C(=O)C(CC(=O)N2CCC(N3Cc4ccccc4NC3=O)CC2)SC12CCSCC2` (centres unmarked) [Compound 84], the IC50 at endogenous CGRP receptor is < 1000 nM. Besides, in assay [1], the Ki was < 1000 nM.
Take `CC(C)(C)CCN1C(=O)C(CC(=O)N2CCC(n3c(=O)[nH]c4ncccc43)CC2)SC1c1ccccc1N1CCC(O)CC1` (centres unmarked) [Compound 415]: the IC50 at endogenous CGRP receptor lay in the range of 1000 to 5000 nM. Also, the Ki in assay [1] was < 1000 nM.
`CC(C)(C)N1CCN(c2c(F)cccc2[C@H]2S[C@@H](CC(=O)N3CCC(N4CCc5ccccc5NC4=O)CC3)C(=O)N2CCc2ccccc2)CC1` [Compound 507]: on endogenous CGRP receptor, the IC50 was < 1000 nM. Moreover, the inhibition constant Ki in assay [1] is < 1000 nM.
As for `Cc1ccccc1C1SC(CC(=O)N2CCC(N3CCc4ccccc4NC3=O)CC2)C(=O)N1CCC(C)C` (centres unmarked) [Compound 171], the half-inhibitory concentration (IC50) on endogenous CGRP receptor is < 1000 nM. Also, the Ki in assay [1] was < 1000 nM.
Regarding `CC(C)(C)CCN1C(=O)[C@H](CC(=O)N2CCC(N3CCc4ccccc4NC3=O)CC2)SC1c1ccccc1N1CCN(C(=O)OC(C)(C)C)CC1=O` (some centres unmarked) [Compound 510], the IC50 at endogenous CGRP receptor was < 1000 nM. Moreover, the Ki in assay [1] is < 1000 nM.
Regarding `COC(=O)[C@@H](CC(C)C)N1C(=O)C(CC(=O)N2CCC(N3CCc4ccccc4NC3=O)CC2)SC1c1ccccc1` (some centres unmarked) [Compound 225], on endogenous CGRP receptor, the IC50 was < 1000 nM. For the same compound, the Ki in assay [1] is < 1000 nM.
For the compound `CN(C)c1ccccc1C1SC(CC(=O)N2CCC(n3c(=O)[nH]c4ccccc43)CC2)C(=O)N1CCC(C)(C)C` (centres unmarked) [Compound 299], the IC50 on endogenous CGRP receptor was < 1000 nM. In addition, the Ki in assay [1] is < 1000 nM.
In the case of `CN1CCN(c2ccc(F)cc2[C@H]2S[C@@H](CC(=O)N3CCC(n4c(=O)[nH]c5ncccc54)CC3)C(=O)N2CCC(C)(C)C)CC1` [Compound 397], on endogenous CGRP receptor, the IC50 was > 5000 nM. For the same compound, the inhibition constant (Ki) in assay [1] was > 5000 nM.
Turning to `CC(C)(C)CCN1C(=O)[C@H](CC(=O)N2CCC(N3CCc4ccccc4NC3=O)CC2)SC1c1cccc(F)c1N1CCC(N)C1` (some centres unmarked) [Compound 471], the IC50 at endogenous CGRP receptor was < 1000 nM. Besides, the Ki in assay [1] was < 1000 nM.
For `CC(C)(C)CCN1C(=O)C(CC(=O)N2CCC(N3CCc4ccccc4NC3=O)CC2)SC1c1ccccc1C1=CCNCC1` (centres unmarked) [Compound 414], the IC50 on endogenous CGRP receptor was in the range of 1000 to 5000 nM. In addition, the Ki in assay [1] was > 5000 nM.
The corresponding values for `CC(C)(C)CCN1C(=O)[C@H](CC(=O)N2CCC(N3CCc4ccccc4NC3=O)CC2)SC1c1ccccc1C1CCN(C(=O)OC(C)(C)C)CC1` (mixture of isomers) [Compound 500] are > 5000 nM and < 1000 nM.
As for `O=C(CC1SC(c2ccccc2)N(Cc2ccc(F)cc2)C1=O)N1CCC(N2Cc3ccccc3NC2=O)CC1` (centres unmarked) [Compound 208], the IC50 at endogenous CGRP receptor was < 1000 nM. Further, in assay [1], the Ki was < 1000 nM.
For the compound `CC(C)(C)CCN1C(=O)[C@H](CC(=O)N2CCC(n3c(=O)[nH]c4ncccc43)CC2)S[C@H]1c1cccc(F)c1N1CCC(N)C1` (some centres unmarked) [Compound 470], the IC50 on endogenous CGRP receptor is < 1000 nM. For the same compound, the Ki in assay [1] is < 1000 nM.
As for `CC(C)(C)CCN1C(=O)C(CC(=O)N2CCC(N3CCc4ccccc4NC3=O)CC2)SC1c1cccc(F)c1N1CCN(C2CC2)CC1` (centres unmarked) [Compound 389], the IC50 at endogenous CGRP receptor was < 1000 nM. Further, the Ki in assay [1] is < 1000 nM.
On to `CC(C)(C)CCN1C(=O)[C@H](CC(=O)N2CCC(n3c(=O)[nH]c4ncccc43)CC2)SC1c1cccc(F)c1C1CCN(C(=O)OC(C)(C)C)CC1` (some centres unmarked) [Compound 551], for which the IC50 at endogenous CGRP receptor was > 5000 nM. The compound further gave a Ki in assay [1] of 1000 to 5000 nM.
The corresponding values for `CC(C)(C)CCN1C(=O)C(CC(=O)N2CCC(N3Cc4ccccc4NC3=O)CC2)SC1c1ncc[nH]1` (centres unmarked) [Compound 306] are > 5000 nM and > 5000 nM.
The corresponding values for `CC(C)N1CCN(c2c(F)cccc2C2SC(CC(=O)N3CCC(N4CCc5ccccc5NC4=O)CC3)C(=O)N2CCC(C)(C)C)CC1` (centres unmarked) [Compound 340] are > 5000 nM and > 5000 nM.
The corresponding values for `CC(C)(C)N1CCN(c2c(F)cccc2[C@H]2S[C@@H](CC(=O)N3CCC(N4CCc5ccccc5NC4=O)CC3)C(=O)N2CC2CCCCC2)CC1` [Compound 514] are < 1000 nM and < 1000 nM.
Consider `CC(C)(C)N1CCN(c2c(F)cccc2C2S[C@@H](CC(=O)N3CCC(N4CCc5ccccc5NC4=O)CC3)C(=O)N2CC2CCCCC2)CC1` (some centres unmarked) [Compound 515], for which the IC50 on endogenous CGRP receptor is < 1000 nM. For the same compound, in assay [1], the Ki is < 1000 nM.
For `CN1CCN(c2ccc(F)cc2[C@@H]2S[C@@H](CC(=O)N3CCC(n4c(=O)[nH]c5ncccc54)CC3)C(=O)N2CCC(C)(C)C)CC1` [Compound 394], the IC50 on endogenous CGRP receptor is < 1000 nM. The Ki in assay [1] is < 1000 nM.
On to `CC(C)(C)CCN1C(=O)C(CC(=O)N2CCC(N3Cc4ccccc4NC3=O)CC2)SC1c1ccccc1N1CCC(O)CC1` (centres unmarked) [Compound 49], for which the IC50 at endogenous CGRP receptor is < 1000 nM. Moreover, the Ki in assay [1] is < 1000 nM.
Take `CC(C)(C)CCN1C(=O)C(CC(=O)N2CCC(N3CCc4ccccc4NC3=O)CC2)SC1c1cccc(F)c1N1CCNCC1` (centres unmarked) [Compound 391]: the IC50 on endogenous CGRP receptor is > 5000 nM. Further, the Ki in assay [1] was > 5000 nM.
`CC(C)(C)CCN1C(=O)C(CC(=O)N2CCC(N3Cc4ccccc4NC3=O)CC2)SC1c1ccccc1-n1ccnc1` (centres unmarked) [Compound 60]: the IC50 at endogenous CGRP receptor is < 1000 nM. For the same compound, the Ki in assay [1] is < 1000 nM.
Turning to `CN(C)c1ccccc1C1SC(CC(=O)N2CCC(N3Cc4ccccc4NC3=O)CC2)C(=O)N1CCC(C)(C)C` (centres unmarked) [Compound 198], the IC50 on endogenous CGRP receptor was < 1000 nM. Also, the Ki in assay [1] is < 1000 nM.
On to `CC(C)CCN1C(=O)[C@H](CC(=O)N2CCC(N3CCc4ccccc4NC3=O)CC2)SC1c1cccc(F)c1N1CCN(C(C)(C)C)CC1` (some centres unmarked) [Compound 545], for which the IC50 at endogenous CGRP receptor was < 1000 nM. For the same compound, the Ki in assay [1] was < 1000 nM.
For the compound `CC(C)CN1CCC(c2ncc(C3S[C@@H](CC(=O)N4CCC(N5CCc6ccccc6NC5=O)CC4)C(=O)N3CCC(C)(C)C)s2)CC1` (stereo partly drawn) [Compound 498, (5S)-3-(3,3-Dimethylbutyl)-2-(2-(1-isobutylpiperidin-4-yl)thiazol-5-yl)-5-(2-oxo-2-(4-(2-oxo-4,5-dihydro-1H-benzo[d][1,3]diazepin-3(2H)-yl)piperidin-1-yl)ethyl)thiazolidin-4-one], on endogenous CGRP receptor, the IC50 is < 1000 nM. Besides, the Ki in assay [1] was < 1000 nM.
Turning to `CN1CCN(c2ccc(F)cc2C2SC(CC(=O)N3CCC(N4Cc5ccccc5NC4=O)CC3)C(=O)N2CCC(C)(C)C)CC1` (centres unmarked) [Compound 351], on endogenous CGRP receptor, the IC50 fell in the range of 1000 to 5000 nM. Also, the Ki in assay [1] is < 1000 nM.
Consider `CC(C)(C)N1CCN(c2c(F)cccc2[C@@H]2S[C@@H](CC(=O)N3CCC(N4CCc5ccccc5NC4=O)CC3)C(=O)N2CC2CC2)CC1` [Compound 488], for which the IC50 on endogenous CGRP receptor was < 1000 nM. In assay [1], the Ki is < 1000 nM.
Take `CC(C)(C)N1C(=O)C(CC(=O)N2CCC(N3Cc4ccccc4NC3=O)CC2)SC1c1ccccc1` (centres unmarked) [Compound 251]: the IC50 on endogenous CGRP receptor was > 5000 nM. The Ki in assay [1] lay within 1000 to 5000 nM.
On to `CCCCN1C(=O)[C@H](CC(=O)N2CCC(N3CCc4ccccc4NC3=O)CC2)SC1c1cccc(F)c1N1CCN(C(C)(C)C)CC1` (some centres unmarked) [Compound 521], for which the IC50 at endogenous CGRP receptor was < 1000 nM. Besides, the Ki in assay [1] is < 1000 nM.

Values taken from patent publication US8163737B2 (Vertex Pharmaceuticals Incorporated, priority 2006, dated 2012).
